Key:
NF-κB [1] = assay: TNF-α-activated NF-κB after FUT treatment; format: cell-based, human; details: MDAPanc-28, FUT 80 μg/ml, TNF-α 5 ng/ml
Protocol: After the following treatment on the human pancreas cancer cell line […]-28, plasmatic compartment was prepared and Western blot was performed to examine the expression of phosphorylated FADD, caspase 8, NF-κB and IκBα. […] The same was true for IκBα expression (FIG. 7-c).

caspase 8 = assay: Western blot of caspase 8 activation; format: cell-based, human
Protocol: (§1) The present inventors examined whether apoptosis signaling cascade is triggered with the elevation of TNFRI expression induced by FUT treatment, using caspase 8 as an indicator. Cytoplasmic fraction was prepared from the human pancreas cancer cell line MDAPanc-28 treated with various concentrations of FUT for 24 hours. Western blot was performed and subjected to the detection with anti-caspase 8 antibody (Santa Cruz Biotechnology) (FIG. 6-a). Western blot was performed to examine temporal changes in the expression of caspase 8, p-FADD, Bid and jBid under a constant concentration of FUT (80 μg/ml) at short intervals from 0 to 24 hours of treatment (FIGS. 6-b, 6-c and 6-d). Anti-FADD antibody was obtained from Santa Cruz Biotechnology and anti-Bid antibody was obtained from BD Pharmingen.
(§2) After the following treatment on the human pancreas cancer cell line MDAPanc-28, plasmatic compartment was prepared and Western blot was performed to examine the expression of phosphorylated FADD, caspase 8, NF-κB and IκBα. […] The same was true for IκBα expression (FIG. 7-c).

MMP-2 = assay: Western blot of MMP-2 expression; format: cell-based, human; details: MDAPanc-28 cytoplasmic fraction, 0 or 80 μg/ml FUT
Protocol: Cytoplasmic fraction was prepared from the human pancreas cancer cell line […]-28 treated with either 0 μg/ml or 80 μg/ml of FUT. Western blot was performed for the obtained cytoplasmic proteins to examine MMP-2 and MMP-9 expression. More specifically, the experiment was performed by the method described in Example 2. Rabbit polyclonal anti-MMP-2 antibody, goat polyclonal anti-MMP-9 antibody and mouse anti-B-actin antibody (Santa Cruz Biotechnology, Inc.) were used for detection.

NF-κB [2] = assay: Gel shift assay of gemcitabine-induced NF-κB activation; format: cell-based, human; details: MDAPanc-28, pretreatment 3 hours then gemcitabine 3 hours
Protocol: At the same time, the present inventors also made a comparison with the other NF-κB inhibitors PS1145 and PS341. […] Subsequently, a gel shift assay was performed to examine the effect on NF-κB activation.

Murine fiber cells = assay: Effect on survival rate of normal cells; format: cell-based; details: 80 μg/ml
Text: Therefore, the present inventors next examined the effect of FUT treatment on normal cells. Murine fiber cells were used as normal cells.

[3] = tested on: human pancreas cancer cell line MDAPanc-28; assay: DNA fragmentation assay (apoptosis); format: cell-based; details: MDAPanc-28
Protocol: After adding 1000 U/ml of protease K, the sample was further incubated for 5 hours at 50° C. After extracting DNA with phenol/chloroform/isoamyl alcohol, isopropanol and ammonium acetate were added to the collected water-soluble fractions in order to collect precipitates. The precipitates were then rinsed with 70% ethanol and dissolved in Tris-EDTA buffer. Electrophoresis was performed on a 2% agarose gel and DNA bands were confirmed by using ethidium bromide. The present inventors examined the concomitant effect of FUT and TNF-α on apoptosis in cancer cells. After treatment with TNF-α for 24 hours, the human pancreas cancer cell line […]-28 was further cultured for 24 hours with various concentrations of FUT being added. Cells prepared were then subjected to an MTT assay according to the method generally known to calculate the cell survival rates. Also, DNA was extracted to perform a DNA fragmentation assay. More specifically, with regard to the MTT assay, each well was seeded with 2000 cells per 100 μl of culture medium in a 96-well microtiterplate, followed by the above mentioned treatment. […] The absorbance of the samples was measured at 570 nm by using a microplate reader. […] Two independent experiments were performed, and the average was calculated. […]

jBid = assay: Western blot of Bid / jBid; format: cell-based, human; details: MDAPanc-28, FUT 80 μg/ml, 0 to 24 hours
Protocol: as §1, with “[…]-28” for “MDAPanc-28”

NF-κB [4] = assay: Gel shift assay of active NF-κB in nuclear extracts; format: cell-based, human
Protocol: The human pancreas cancer cell line MDAPanc-28 was treated with various concentrations of FUT to examine the effect on NF-κB activation. NF-κB is constantly activated in the MDAPanc-28 cell line. A gel shift assay with a κB probe was performed using the nuclear extracts from cells treated with various concentrations of FUT to detect NF-κB which was activated and translocated into the nucleus. More specifically, 10 μg of nuclear extracts were reacted with 1 μg of poly (dI-dC) (Pharmacia, Picataway, N.J.) in binding buffer (75 mM NaCl, 15 mM Tris-HCl, pH 7.5, 1.5 mM dithiothreitol, 25% glycerol and 20 mg/ml bovine serum albumin) for 30 minutes at 4° C. ^32P-labeled oligonucleotide probes (SEQ ID Nos: 1 to 4) were then added for reaction for 20 minutes at room temperature and electrophoresis was performed (4% polyacrylamide gel, 0.25×TBE; 22.5 mM Tris, 22.5 mM borate and 500 μM EDTA, pH 8.0). After drying at 80° C. for 1 hour, the gel was exposed to Kodak film (Eastman Kodak Co., Rochester, N.Y.) at −80° C. for detection. Oct-1 was used as a positive control.

PEA3 = PEA3 expression after FUT treatment; format: cell-based, human; details: MDAPanc-28, over time
FADD = assay: Western blot of FADD phosphorylation; format: cell-based, human
Protocol: as §1, §2

[5] = MDAPanc-28, FUT 80 μg/ml pretreatment then TNF-α 5 ng/ml 24 hours, compared to FUT alone
[6] = MDAPanc-28, FUT 80 μg/ml, 0 to 24 hours

With `N=C(N)c1ccc2cc(OC(=O)c3ccc(N=C(N)N)cc3)ccc2c1` [FUT, 6-amidino-2-naphthyl p-guanidinobenzoate dimethanesulfonate] the “TNF-α-activated NF-κB” value (NF-κB [1]) was “inhibits TNF-α-activated NF-κB”, the “caspase 8 activation with TNF-α stimulation” value (caspase 8; [5]) was “enhanced FADD phosphorylation and caspase 8 activation” and the “caspase 8 activation over time” value (caspase 8; [6]) was “later on promoted caspase 8 activation”. The “caspase 8 activation” value (caspase 8; MDAPanc-28, various concentrations of FUT for 24 hours) was “activated by FUT in a concentration-dependent manner”, the “caspase 8 activation in TNFRI-downregulated cells” value (caspase 8; cells with TNFRI expression downregulated using siRNA, after FUT treatment) was “nor caspase 8 activation” and the MMP-2 expression (MMP-2) was “inhibited by FUT in a concentration-dependent manner”. The “effect on gemcitabine-induced activation of NF-κB” value (NF-κB [2]) was “had an inhibitory effect on gemcitabine-induced activation of NF-κB”, the “inhibitory effect on gemcitabine-induced NF-κB activation compared among FUT, PS1145 and PS341” value (NF-κB [2]) was “most significant” and the “cell survival rate of normal cells” value (Murine fiber cells) was “had no effect on cell survival rate”. The “concentration at which DNAs were fragmented (apoptosis induction)” value [3] was ≥ 40 µg/mL, the “expression of JBid, the degradation product of Bid” value (jBid) was “overtime increase in the expression of JBid” and the “NF-κB activation over time” value (NF-κB [4]; MDAPanc-28, time after addition of FUT up to 48 hours) was “inhibited overtime up to 24 hours after addition of FUT and then was restored to a steady-state level at 48 hours”. For the same molecule, the NF-κB activation (NF-κB [4]; MDAPanc-28, various concentrations of FUT) was “inhibited NF-κB activation in a concentration-dependent manner”, the PEA3 expression (PEA3) was “increased PEA3 expression overtime” and the “FADD phosphorylation with TNF-α stimulation” value (FADD; [5]) was “enhanced FADD phosphorylation”. For the same molecule, the FADD phosphorylation (FADD; [6]) was “promoted FADD phosphorylation overtime”.

Reference: patent publication US20100015249A1, “Antitumor agent containing 6'-amidino-2'-naphthyl 4-guanidinobenzoate or salt thereof” (priority 2005, published 2010)
